Tests used:
chromogranin A (CGA) = target: T1, chromogranin A (CGA) (Bos taurus, UniProt P05059); assay: Metal-induced chromogranin A aggregation (turbidity); assay type: biochemical, bovine; settings: 1 μM compound, pH 7.4; for Fe2+-induced chromogranin A aggregation / Cu2+-induced chromogranin A aggregation: chromogranin A 0.005 mg/ml (0.1 μM); for Zn2+-induced chromogranin A aggregation: chromogranin A 0.005 mg/ml
T1 construct: from tissue; host or cells: secretory granules of bovine adrenal medulla
T1 sequence (P05059 19-449): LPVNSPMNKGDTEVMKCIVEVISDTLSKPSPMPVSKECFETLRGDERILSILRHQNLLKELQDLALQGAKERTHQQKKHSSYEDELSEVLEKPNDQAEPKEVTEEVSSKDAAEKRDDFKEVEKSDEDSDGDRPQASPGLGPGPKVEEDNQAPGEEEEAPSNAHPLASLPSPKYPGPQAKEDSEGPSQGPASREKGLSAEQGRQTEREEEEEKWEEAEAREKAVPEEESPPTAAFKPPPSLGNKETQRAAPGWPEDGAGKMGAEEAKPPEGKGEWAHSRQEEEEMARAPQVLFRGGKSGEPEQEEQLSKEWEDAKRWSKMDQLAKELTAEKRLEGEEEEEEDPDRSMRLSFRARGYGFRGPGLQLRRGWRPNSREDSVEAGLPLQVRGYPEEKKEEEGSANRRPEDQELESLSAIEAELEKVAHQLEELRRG
Text: (§1) Materials: The major granin proteins, chromogranin A (CGA), chromogranin B (CGB), and secretogranin II (SgII) were purified from secretory granules of bovine adrenal medulla as described (Park et al., 2002; Yoo, 1995; Yoo and Albanesi, 1990). Chelex 100 was from Bio-Rad (U.S.A), and other chemicals were of highest purity that is commercially available. Purified native chromogranin B (c), secretogranin II (d), and chromogranin A (b) are illustrated in FIG. 4. The flavonoids, stilbenoids, and the other test compounds used in the present experiments were obtained from MedChem Express (U.S.A.), Sigma-Aldrich (U.S.A.), and Santa-Cruz Biotech. (U.S.A.), and the purity of all the compounds tested was 98% or higher.
(§2) Aggregation Experiments: Prior to aggregation studies, it is necessary to remove metal ions that had interacted with granins during purification process from granins through extensive treatments with chelating agents such as Chelex 100 (Bio-Rad, U.S.A) to dissociate the granin aggregates. For metal-induced aggregation studies, Chelex 100-treated CGA, CGB, or SgII in 2 mM MOPS, pH 7.4, was titrated with concentrated metal ions such as CuCl2, FeCl2, and ZnCl2. Aggregation was monitored by measuring the turbidity change with a Beckman DU640 uv/vis spectrophotometer. All the measurements were done at 24° C.
(§3) Materials: The major granin proteins, chromogranin A (CGA), chromogranin B (CGB), and secretogranin II (SgII) were purified from secretory granules of bovine adrenal medulla as described (Park et al., 2002; Yoo, 1995; Yoo and Albanesi, 1990). Chelex 100 was from Bio-Rad, and other chemicals were of highest purity that is commercially available.
as §2, with “100” for “100 (Bio-Rad, U.S.A)”, “Beckman” for “Beckman DU640 uv/vis”

chromogranin B (CGB) = target: T2, chromogranin B (CGB) (Bos taurus, UniProt P23389); assay: Metal-induced chromogranin B aggregation (turbidity); assay type: biochemical, bovine; settings: 1 μM compound, pH 7.4; for Fe2+-induced chromogranin B aggregation / Cu2+-induced chromogranin B aggregation: chromogranin B 0.005 mg/ml (0.06 μM)
T2 construct: from tissue; host or cells: secretory granules of bovine adrenal medulla
T2 sequence (P23389 21-646): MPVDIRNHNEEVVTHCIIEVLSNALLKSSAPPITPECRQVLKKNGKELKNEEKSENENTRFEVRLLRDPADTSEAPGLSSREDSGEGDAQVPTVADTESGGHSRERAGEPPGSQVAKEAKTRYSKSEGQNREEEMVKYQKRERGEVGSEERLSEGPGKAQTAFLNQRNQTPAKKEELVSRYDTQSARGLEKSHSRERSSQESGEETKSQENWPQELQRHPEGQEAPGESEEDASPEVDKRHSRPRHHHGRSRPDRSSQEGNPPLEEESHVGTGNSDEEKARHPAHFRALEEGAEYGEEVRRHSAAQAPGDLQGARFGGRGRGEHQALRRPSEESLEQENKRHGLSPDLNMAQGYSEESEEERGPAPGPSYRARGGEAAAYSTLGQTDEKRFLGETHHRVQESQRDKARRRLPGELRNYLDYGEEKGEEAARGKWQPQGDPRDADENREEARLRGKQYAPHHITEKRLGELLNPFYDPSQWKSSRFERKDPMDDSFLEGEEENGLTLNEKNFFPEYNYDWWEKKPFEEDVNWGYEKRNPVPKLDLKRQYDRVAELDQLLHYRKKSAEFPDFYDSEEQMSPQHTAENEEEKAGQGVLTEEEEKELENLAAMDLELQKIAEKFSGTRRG
Text: as §1, §2, §3
as §2, with “100” for “100 (Bio-Rad, U.S.A)”, “Beckman” for “Beckman DU640 uv/vis”

secretogranin II (SgII) = target: T3, secretogranin II (SgII) (Bos taurus, UniProt P20616); assay: Metal-induced secretogranin II aggregation (turbidity); assay type: biochemical, bovine; settings: 1 μM compound, pH 7.4
T3 construct: from tissue; host or cells: secretory granules of bovine adrenal medulla
T3 sequence (P20616 31-613): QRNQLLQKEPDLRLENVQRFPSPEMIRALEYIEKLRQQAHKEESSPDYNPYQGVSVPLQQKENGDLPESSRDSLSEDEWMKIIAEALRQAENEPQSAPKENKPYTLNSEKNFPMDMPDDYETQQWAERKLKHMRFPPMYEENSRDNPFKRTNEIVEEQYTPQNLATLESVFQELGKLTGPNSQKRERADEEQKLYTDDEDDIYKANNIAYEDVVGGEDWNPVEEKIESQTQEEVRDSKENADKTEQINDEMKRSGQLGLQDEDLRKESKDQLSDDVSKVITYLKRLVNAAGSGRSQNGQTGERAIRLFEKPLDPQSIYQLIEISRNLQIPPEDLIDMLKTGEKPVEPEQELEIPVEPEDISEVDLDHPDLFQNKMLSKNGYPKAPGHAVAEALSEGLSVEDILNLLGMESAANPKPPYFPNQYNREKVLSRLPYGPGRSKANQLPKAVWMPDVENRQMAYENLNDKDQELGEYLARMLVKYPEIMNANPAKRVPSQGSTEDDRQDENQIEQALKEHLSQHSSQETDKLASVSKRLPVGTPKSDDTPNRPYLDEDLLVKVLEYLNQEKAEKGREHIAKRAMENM
Text: as §1, §2, §3
as §2, with “100” for “100 (Bio-Rad, U.S.A)”, “Beckman” for “Beckman DU640 uv/vis”

chromogranin B = target: T4, chromogranin B (Bos taurus, UniProt P23389); assay: Dynamic light scattering, hydrodynamic state of chromogranin B; assay type: biochemical, bovine; settings: chromogranin B 0.5 mg/ml (6 μM); 0.2 mM compound; 0.2 mM Fe2+; pH 7.4
T4 construct: from tissue; host or cells: secretory granules of bovine adrenal medulla
T4 sequence (P23389 21-646): T2 sequence (P23389 21-646)
Experimental: Molecular dynamic light scattering: To determine whether granins are in a monomer-to-oligomer state or in high molecular weight aggregate states in different solution conditions, dynamic light scattering experiments of granins were carried out with a DynaPro NanoStar of Wyatt Technology (Santa Barbara, Calif.) at 24° C., and the results were analyzed by a program (Dynamics 7.5.0) provided by the company.

PC12 cells = assay: MTT cell toxicity assay, granin plus Cu2+ toxicity; assay type: cell-based; settings: 0.1 μM chromogranin A, 0.06 μM chromogranin B, 0.07 μM secretogranin II, 20 μM Cu2+, 1 μM compound
Text: MTT cell toxicity assay: Cell toxicity assays were done using MTT cell proliferation assay kits from Invitrogen (U.S.A.) and 50,000 PC12 cells/well as described (Cheruvara et al., 2015; Shearman et al., 1994). The assays are designed to detect the level of MTT dye reduction by cells, and the resulting color changes at 570 nm are used as an indicator of cell viability (health). The healthier the cells the higher the color changes.

[1] = secretogranin II 0.005 mg/ml (0.07 μM)

Compound: O=c1c(O)c(-c2cc(O)c(O)c(O)c2)oc2cc(O)cc(O)c12 [myricetin]
- Fe2+-induced chromogranin A aggregation (chromogranin A (CGA)): completely suppressed
- Fe2+-induced chromogranin B aggregation (chromogranin B (CGB)): completely suppressed

Compound: O=c1cc(-c2ccc(O)cc2)oc2cc(O)cc(O)c12 [apigenin]
- Cu2+-induced chromogranin A aggregation (chromogranin A (CGA)): completely suppressed
- Zn2+-induced chromogranin B aggregation (chromogranin B (CGB); chromogranin B 0.005 mg/ml): mostly suppressed

Compound: O=c1c(O)c(-c2ccc(O)cc2O)oc2cc(O)cc(O)c12 [morin]
- Fe2+-induced chromogranin A aggregation (chromogranin A (CGA)): completely suppressed
- Zn2+-induced chromogranin A aggregation (chromogranin A (CGA)): mostly suppressed

Compound: O=c1c(O)c(-c2ccc(O)c(O)c2)oc2cc(O)ccc12 [fisetin]
- Fe2+-induced chromogranin A aggregation (chromogranin A (CGA)): completely suppressed
- Fe2+-induced secretogranin II aggregation (secretogranin II (SgII); [1]): completely suppressed

Compound: O=c1c(O)c(-c2ccc(O)cc2)oc2cc(O)cc(O)c12 [kaempferol]
- Fe2+-induced chromogranin A aggregation (chromogranin A (CGA)): completely suppressed
- Cu2+-induced secretogranin II aggregation (secretogranin II (SgII); [1]): mostly suppressed

Compound: O=c1cc(-c2ccccc2)oc2cc(O)c(O)c(O)c12 [baicalein]
- Fe2+-induced secretogranin II aggregation (secretogranin II (SgII); secretogranin II 0.01 mg/ml (0.14 μM)): completely suppressed
- Cu2+-induced chromogranin B aggregation (chromogranin B (CGB)): mostly suppressed
- chromogranin B in large aggregate state (chromogranin B): 5.3%
- chromogranin B remaining in low molecular weight oligomer state (chromogranin B): 94.7%

Compound: Oc1ccc(C=Cc2cc(O)cc(O)c2)cc1 [resveratrol]
- Zn2+-induced secretogranin II aggregation (secretogranin II (SgII); [1]): significantly suppressed
- Fe2+-induced chromogranin B aggregation (chromogranin B (CGB)): mostly suppressed

Compound: O=c1cc(-c2ccc(O)c(O)c2)oc2cc(O)cc(O)c12 [luteolin]
- granin-induced toxicity (cell toxicity, MTT) (PC12 cells): virtually stopped
- Fe2+-induced secretogranin II aggregation (secretogranin II (SgII); [1]): mostly inhibited
- Fe2+-induced chromogranin B aggregation (chromogranin B (CGB)): mostly inhibited

Compound: COc1cc2ncnc(Nc3cccc(Cl)c3)c2cc1OC [tyrphostin AG1478]
- Fe2+-induced chromogranin A aggregation (chromogranin A (CGA)): significantly suppressed
- Fe2+-induced secretogranin II aggregation (secretogranin II (SgII); [1]): significantly suppressed

Compound: epigallocatechin 3-gallate [EGCG]
- Cu2+-induced secretogranin II aggregation (secretogranin II (SgII); [1]): mostly suppressed
- Fe2+-induced secretogranin II aggregation (secretogranin II (SgII); [1]): completely suppressed

Compound: O=c1c(O)c(-c2ccc(O)c(O)c2)oc2cc(O)cc(O)c12 [quercetin]
- Fe2+-induced secretogranin II aggregation (secretogranin II (SgII); [1]): completely suppressed
- Cu2+-induced chromogranin B aggregation (chromogranin B (CGB)): completely suppressed

Compound: COc1ccc(-c2cc(=O)c3c(OC)c(OC)c(OC)c(OC)c3o2)cc1 [tangeretin]
- Cu2+-induced chromogranin A aggregation (chromogranin A (CGA)): mostly suppressed
- Fe2+-induced chromogranin B aggregation (chromogranin B (CGB)): completely suppressed

Compound: Nc1ncnc2c1ncn2[C@@H]1O[C@H](CO)C[C@H]1O [cordycepin]
- Cu2+-induced chromogranin A aggregation (chromogranin A (CGA)): mostly suppressed
- Fe2+-induced secretogranin II aggregation (secretogranin II (SgII); [1]): significantly suppressed

Compound: COc1cc(OC)c2c(=O)cc(-c3ccccc3)oc2c1 [5,7-dimethoxyflavone]
- Fe2+-induced chromogranin A aggregation (chromogranin A (CGA)): completely suppressed
- Zn2+-induced chromogranin A aggregation (chromogranin A (CGA)): mostly suppressed

— patent US11318136B2, “Identification of granins as the pathogenic factor of alzheimer's disease and compositions and methods for inhibiting granin aggregation and treating alzheimer's disease” (priority 2018, dated 2022)
